The record followed here is patent US6649658B1, “(−)-Verbenone derivatives” (Euphar Group SRL, priority 1999, dated 2003).

For data set [1], the system named is Carrageenin-induced Oedema. Briefly: Carrageenin-induced oedema in the rat per os. Format: in vivo. To be noted: 200 mg/kg, maximum effect 120 minutes after administration. The source says:
(§1) The anti-inflammatory activity of 3-amino-(−)-verbenone-5-sulphosalicylate was compared with that of (−)-verbenone in accordance with methods described in the literature (C. A. WINTER et al. Carrageenin induced edema in hind paw of the rat as an assay for antinflammatory drugs. Proc. Soc. Exp. Biol. Med. 111, 544, 1962. CURVOISIER et al. Action of chlorpromazine on the edema produced by dextran in rats. Arch. Inter. Pharmacodynamie, 102, 33-54, 1955. B. B. NEWBOULD) Chemotherapy of arthritis induced in rats by microbacterial adjuvant. Brit. J. Pharmacol. 21, 127-135, 1963. J. V. HURLEY et al. Reagin-Like antibodies in animals immune to helminth parasites. Nature (Lond.) 204, 91, 1964. ROTHKOPF et al. Arzneimittel Forschung 26, 225-235, 1976. C. A. WINTER et al. Antitussive compounds: testing methods and results. J. Pharmacol. Exp. Ther. 112, 99, 1954. G. OSTERLOH Arzneimittel Forschung, 16, 901, 1966); the results are given hereinafter in schematic form.
1. Carrageenin-induced Oedema in the Rat per OS
(§2) Parameter: percentage volumetric inhibition; maximum effect 120 minutes after administration: […]
For orientation: In the carrageenan paw model, swelling and tenderness develop within hours.

The subject of data set [2] is Carrageenin-induced Pleurisy. Briefly: Carrageenin-induced pleurisy in the rat per os. In kind it is in vivo. The settings on record: 180 mg/kg.
Description: as §1
5. Carrageenin-induced Pleurisy in the Rat per OS
(§3) Parameter: percentage inhibition of the volume of exudate: […]

The test system of data set [3] is Carrageenin-induced Pleurisy. As to the kind of experiment: Carrageenin-induced pleurisy in the rat by the intraperitoneal route. Format: in vivo. To be noted: 25 mg/kg.
Description: as §1
6. Carrageenin-induced Pleurisy in the Rat by the Intraperitoneal Route
as §3

The test system of data set [4] is Carrageenin-induced Oedema. As to the kind of experiment: Carrageenin-induced oedema in the rat by the intraperitoneal route. Format: in vivo. To be noted: 120 mg/kg, maximum effect 120 minutes after administration.
Description: as §1
2. Carrageenin-induced Oedema in the Rat by the Intraperitoneal Route
as §2

In data set [5] the test system is Acrolein-induced Aerosol (inflammation of the airways). As to the kind of experiment: Acrolein-induced aerosol in the guinea pig by the intraperitoneal route. Format: in vivo. The settings on record: 30 mg/kg, residual inflammation after treatment (lower is better).
Description: as §1
7. Acrolein-induced Aerosol in the Guinea Pig by the Intraperitoneal Route
Parameter: inflammation of the upper, middle, lower airways: scores (double blind):
(§4) N. B. It should be emphasised in this connection that the results of Examples 1-6 have been given as a percentage of volumetric inhibition; Examples 7 and 8, however, indicate inflammation and adverse gastric action of a residual nature after treatment.

Data set [6] deals with Turpentine-induced Pleurisy. As to the kind of experiment: Turpentine-induced pleurisy in the rat by the intraperitoneal route. Format: in vivo. The settings on record: 60 mg/kg.
Description: as §1
4. Turpentine-induced Pleurisy in the Rat by the Intraperitoneal Route
Parameter: percentage inhibition of the volume of exudate and of leukocyte migration: […]

Data set [7] deals with Adjuvant Arthritis. Briefly: Adjuvant arthritis in the rat by the intraperitoneal route. Format: in vivo. The settings on record: 60 mg/kg, day 28.
Description: as §1
3 Adjuvant Arthritis in the Rat by the Intraperitoneal Route
Parameter: percentage inhibition of the volumetric increase of the lower limbs; day “28”: […]

Data set [8] deals with Adverse Gastric Activity. As to the kind of experiment: Adverse gastric activity in the rat per os (Osterloh). In kind it is in vivo. The settings on record: for evaluation of adverse gastric action according to Osterloh: rat, per os, 360 mg/kg, residual adverse gastric action after treatment.
Description: as §1
8. Adverse Gastric Activity in the Rat per OS
Parameter: evaluation of adverse gastric action according to Osterloh
as §4

Data set [9] in a line: Water solubility. Format: physicochemical. The settings on record: in words.
A short description of data set [10]: Stability on storage or handling. Format: physicochemical. To be noted: in words.

Take “3-Aminoverbenone-5-sulphosalicylate [3-amino-(−)-verbenone-5-sulphosalicylate]”: the percentage volumetric inhibition is 78% in data set [1] and 67% in data set [4]. The “percentage inhibition of the volume of exudate” value was 72% in data set [2] and 64% in data set [3]. Besides, in data set [5], the “inflammation of the upper, middle, lower airways: scores (double blind)” value is recorded as 18. In addition, the “percentage inhibition of the volume of exudate and of leukocyte migration” value in data set [6] was 68%. In addition, the “percentage inhibition of the volumetric increase of the lower limbs” value in data set [7] is 64%. Also, the “evaluation of adverse gastric action according to Osterloh” value in data set [8] was found to be 0.85. In addition, in [8] (test 8, in words), the “adverse gastric activity compared with (−)-verbenone” value was “substantially lower adverse gastric activity”.

As for `CC1=CC(=O)[C@H]2C[C@@H]1C2(C)C` [(−)-verbenone, (1S,5S)-4,6,6-Trimethylbicyclo[3.1.1]hept-3-en-2-one], the percentage volumetric inhibition turned out to be 63% in data set [1] and 48% in [4]. Moreover, the “percentage inhibition of the volume of exudate” value in [2] is 46%; in [3] it was 48%. In data set [9], the solubility in water result is on record as “water-insolubility”. The “inflammation of the upper, middle, lower airways: scores (double blind)” value in [5] was found to be 24. Also, in data set [10], the stability result was “instability over time”. Moreover, the “percentage inhibition of the volume of exudate and of leukocyte migration” value in [6] turned out to be 49%. In addition, the “percentage inhibition of the volumetric increase of the lower limbs” value in data set [7] turned out to be 39%. Moreover, in data set [8], the “evaluation of adverse gastric action according to Osterloh” value amounted to 2.

As to `C=C1C=C(N2CCCC2)[C@H]2C[C@H]1C2(C)C` [Compound 9c, (1S,5S)-6,6-Dimethyl-4-methylene-2-pyrrolidinobicyclo[3.1.1]hept-2-ene], the stability entry in data set [10] is “sensitive to oxygen, moisture and light”.
